Data as given in patent US8304422B2, “Compositions and methods for inhibition of the JAK pathway” (Rigel Pharmaceuticals, Inc., priority 2007, dated 2012).

Tested on: BaF3 V617F cells; UKE-1
Experiment: Proliferation Assay (Cell Titer-Glo; Example 7)
Format: cell-based
Settings: proliferation 72 hours, inhibit JAK2 activity, cell line (BaF3 V617F or UKE-1) not stated
How it was run: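 Proliferation IC50s reflect 72 h compound exposure at 37 °C, read by Cell Titer-Glo luminescence. Compound was serially diluted 3-fold from a 5 mM DMSO stock and added as a 2× solution; BaF3 V617F cells were grown in RPMI/10% FBS, UKE-1 in Iscove's DMEM with FBS, equine serum and hydrocortisone.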

| IC50 | Compound |
| --- | --- |
| 114 nM | Cc1cnc(Nc2cc(C)c(OC(C)C)c(C)c2)nc1Nc1ccc(CNS(=O)(=O)C2CC2)cc1 [II-219, 5-Methyl-N4-[4-(N-cyclopropylsulfonylamino)methylphenyl]-N2-[3,5-dimethyl-4-(2-propoxy)phenyl]-2,4-pyrimidinediamine] |
| 121 nM | Cc1cc(Nc2ncc(Cl)c(Nc3ccc(CNS(=O)(=O)C4CC4)cc3)n2)cc(C)c1OC(C)C [II-220, 5-Chloro-N4-[4-(N-cyclopropylsulfonylamino)methylphenyl]-N2-[3,5-dimethyl-4-(2-propoxy)phenyl]-2,4-pyrimidinediamine] |
| 238 nM | CCCOc1c(C)cc(Nc2ncc(Cl)c(Nc3ccc(CNS(=O)(=O)C4CC4)cc3)n2)cc1C [II-221, 5-Chloro-N4-[4-(N-cyclopropylsulfonylamino)methylphenyl]-N2-[3,5-dimethyl-4-(1-propoxy)phenyl]-2,4-pyrimidinediamine] |
| 733 nM | O=S(=O)(NCc1ccc(Nc2nc(Nc3ccc(CN4CCOCC4)cc3)ncc2Cl)cc1)C1CC1 [II-223, 5-Chloro-N4-[4-(N-cyclopropylsulfonylamino)methylphenyl]-N2-[4-(1-morpholinomethyl)phenyl]-2,4-pyrimidinediamine] |
| 848 nM | Cc1cnc(Nc2cncc(C)c2N2CCN(C)CC2)nc1Nc1ccc(CNS(=O)(=O)C2CC2)cc1 [II-224, 5-Methyl-N4-[4-(N-cyclopropylsulfonylamino)methylphenyl]-N2-[5-methyl-4-(N-methylpiperizin-4-yl)pyridin-3-yl]-2,4-pyrimidinediamine] |
| 644 nM | Cc1nc2cc(Nc3ncc(Cl)c(Nc4cccc(CNS(=O)(=O)C5CC5)c4)n3)ccc2[nH]1 [III-7, 5-Chloro-N4-[3-(N-cyclopropylsulfonylaminomethyl)phenyl]-N2-[2-methylbenzamidazol-5-yl]-2,4-pyrimidinediamine] |
| 2200 nM | COc1cc(Nc2ncc(C)c(Nc3ccc4c(c3)[C@H](NS(C)(=O)=O)CC4)n2)cc(OC)c1OC [V-9] |
| 673 nM | COc1c(C)cc(Nc2ncc(C)c(Nc3ccc4c(c3)[C@H](NS(C)(=O)=O)CC4)n2)cc1C [V-10] |
| 2160 nM | Cc1cnc(Nc2ccc(C3CCN(C)CC3)cc2)nc1Nc1ccc2c(c1)[C@H](NS(C)(=O)=O)CC2 [V-11, (1R)-5-Methyl-N2-[4-(1-methyl-4-piperidinyl)pheny]-N4-[1-(methylsulfonyl)aminoindan-6-yl]-2,4-pyrimidinediamine] |
| 668 nM | Cc1cnc(Nc2ccc(-c3cccnc3)cc2)nc1Nc1ccc2c(c1)[C@H](NS(C)(=O)=O)CC2 [V-12, (1R)-5-Methyl-N4-[1-(methylsulfonyl)aminoindan-6-yl]-N2-[4-(3-pyridinyl)phenyl]-2,4-pyrimidinediamine] |
| 2690 nM | Cc1cnc(Nc2ccc(N3CCN(C)CC3)cc2)nc1Nc1ccc2c(c1)[C@H](NS(C)(=O)=O)CC2 [V-14, (1R)-5-Methyl-N2-[4-(4-methyl-1-piperazinyl)phenyl]-N4-[1-(methylsulfonyl)aminoindan-6-yl]-2,4-pyrimidinediamine] |
| 473 nM | CCS(=O)(=O)N1CCc2c(cccc2Nc2nc(Nc3ccc(N4CCN(C)CC4)cc3)ncc2Cl)C1 [VI-1, 5-Chloro-N2-[4-(4-methyl-1-piperazinyl)phenyl]-N4-[1,2,3,4-tetrahydro-2-(ethylsulfonyl)-5-isoquinolinyl]-2,4-pyrimidinediamine] |
| 1270 nM | CCS(=O)(=O)N1CCc2c(cccc2Nc2nc(Nc3ccc(N4CCN(C)CC4)nc3)ncc2Cl)C1 [VI-3, 5-Chloro-N2-[6-(4-methyl-1-piperazinyl)-3-pyridinyl]-N4-[1,2,3,4-tetrahydro-2-(ethylsulfonyl)-5-isoquinolinyl]-2,4-pyrimidinediamine] |
| 1210 nM | CCS(=O)(=O)N1CCc2c(cccc2Nc2nc(Nc3cc(C)c(OC)c(C)c3)ncc2Cl)C1 [VI-4, 5-Chloro-N2-(3,5-dimethyl-4-methoxyphenyl)N4-[1,2,3,4-tetrahydro-2-(ethylsulfonyl)-5-isoquinolinyl]-2,4-pyrimidinediamine] |
| 798 nM | CCS(=O)(=O)N1CCc2c(cccc2Nc2nc(Nc3cc(OC)c(OC)c(OC)c3)ncc2Cl)C1 [VI-5, 5-Chloro-N4-[1,2,3,4-tetrahydro-2-(ethylsulfonyl)-5-isoquinolinyl]-N2-(3,4,5-trimethoxyphenyl)-2,4-pyrimidinediamine] |
| 229 nM | COc1c(C)cc(Nc2ncc(Cl)c(Nc3ccc4c(c3)S(=O)(=O)NCC4)n2)cc1C [VII-1, 5-Chloro-N4-[3,4-dihydro-1,1-dioxide-2H-1,2-benzothiazin-7-yl]-N2-[3,5-dimethyl-4-methoxyphenyl]-2,4-pyrimidinediamine] |
| 1610 nM | Cc1cnc(Nc2cc(C)c(C)c(C)c2)nc1Nc1ccc2c(c1)S(=O)(=O)NCC2 [VII-8, 5-Methyl-N4-[3,4-dihydro-1,1-dioxide-2H-1,2-benzothiazin-7-yl]-N2-[3,4,5-trimethylphenyl]-2,4-pyrimidinediamine] |
| 1340 nM | Cc1cc(Nc2ncc(Cl)c(Nc3ccc4c(c3)S(=O)(=O)NCC4)n2)cc(C)c1C [VII-9, 5-Chloro-N4-[3,4-dihydro-1,1-dioxide-2H-1,2-benzothiazin-7-yl]-N2-[3,4,5-trimethylphenyl]-2,4-pyrimidinediamine] |
| 144 nM | COc1c(C)cc(Nc2ncc(C)c(Nc3ccc4c(c3)S(=O)(=O)NCC4)n2)cc1C [VII-10, 5-Methyl-N4-[3,4-dihydro-1,1-dioxide-2H-1,2-benzothiazin-7-yl]-N2-[3,5-dimethyl-4-methoxyphenyl]-2,4-pyrimidinediamine] |
| 179 nM | COc1c(C)cc(Nc2ncc(C)c(Nc3ccc4c(c3)CCN(S(=O)(=O)C3CC3)C4)n2)cc1C [VIII-9, N4-[(N-cyclopropylsulfonyl)-1,2,3,4-tetrahydroisoquinolin-6-yl]-N2-(3,5-dimethyl-4-methoxy)phenyl-5-methyl-2,4-pyrimidinediamine] |
| 716 nM | CCS(=O)(=O)N1CCc2cc(Nc3nc(Nc4cc(C)c(OC)c(C)c4)ncc3F)ccc2C1 [VIII-10, N4-[(N-ethylsulfonyl)-1,2,3,4-tetrahydroisoquinolin-6-yl]-N2-(3,5-dimethyl-4-methoxy)phenyl-5-fluoro-2,4-pyrimidinediamine] |
| 388 nM | Cc1cnc(Nc2cc(C3CC3)n[nH]2)nc1Nc1ccc(CNS(=O)(=O)C2CC2)cc1 [VIII-11, 5-Methyl-N4-[4-(N-cyclopropylsulfonylamino)methylphenyl]-N2-[5-cyclopropylpyrazol-3-yl)-2,4-pyrimidinediamine] |
| 879 nM | O=S(=O)(NCc1ccc(Nc2nc(Nc3cc(C4CC4)n[nH]3)ncc2Cl)cc1)C1CC1 [VIII-12, 5-Chloro-N4-[4-(N-cyclopropylsulfonylamino)methylphenyl]-N2-[5-cyclopropylpyrazol-3-yl)-2,4-pyrimidinediamine] |
| 19300 nM | (1R)—N2-(3,5-Dichloro-4-methoxyphenyl))-5-methyl-N4-[1-(methylsulfonyl)aminoindan-6-yl]-2,4-pyrimidinediamine [V-13] |
| 467 nM | N4-[4-(N-cyclopropylsulfonylamino)ethylphenyl)]-5-methyl-N2-[4-(6-methoxy-2-methyl)methoxyphenyl]-2,4-pyrimidinediamine [II-66] |

| Compound | IC50 |
| --- | --- |
| CN1CCN(c2ccncc2Nc2ncc(Cl)c(Nc3ccc(CNS(=O)(=O)C4CC4)cc3)n2)CC1 [II-216, 5-Chloro-N4-[4-(N-cyclopropylsulfonylamino)methylphenyl]-N2-[4-(N-methylpiperizin-4-yl)pyridine-3-yl]-2,4-pyrimidinediamine] | 246 nM |
| CN1CCN(c2ccncc2Nc2ncc(Cl)c(Nc3ccc4c(c3)S(=O)(=O)NCC4)n2)CC1 [VII-3, 5-Chloro-N4-[3,4-dihydro-1,1-dioxide-2H-1,2-benzothiazin-7-yl]-N2-[4-(N-methylpiperizin-4-yl)pyridine-3-yl]-2,4-pyrimidinediamine] | 1170 nM |
| Cc1cnc(Nc2cncc(C)c2N2CCN(C)CC2)nc1Nc1ccc2c(c1)S(=O)(=O)NCC2 [VII-6, 5-Methyl-N4-[3,4-dihydro-1,1-dioxide-2H-1,2-benzothiazin-7-yl]-N2-[5-methyl-4-(N-methylpiperizin-4-yl)pyridine-3-yl]-2,4-pyrimidinediamine] | 1900 nM |
| Cc1cnc(Nc2cncc(C)c2N2CCN(C)CC2)nc1Nc1ccc2c(c1)S(=O)(=O)NCC2 [VII-7, 5-Methyl-N4-[3,4-dihydro-1,1-dioxide-2H-1,2-benzothiazin-7-yl]-N2-[5-methyl-4-(N-methylpiperizin-4-yl)pyridine-3-yl]-2,4-pyrimidinediamine] | 5390 nM |
| N2-[3,4-Dimethyl-4-(2-(4-morpholinyl)ethoxy)phenyl]-N4-[4-((N-cyclopropylamino)sulfonylamino)methylphenyl]-5-methyl-2,4-pyrimidinediamine [II-174] | 127 nM |
| N4-[4-(N-Cyclopropylsulfonylamino)methylphenyl]-N2-[3,4-dimethyl-4-(2-(4-morpholinyl)ethoxy)phenyl]-5-methyl-2,4-pyrimidinediamine [II-159] | 47.6 nM |
